This experiment deals with unphosphorylated-BTK kinase domain (UP-BTK), GST-tagged human BTK (389-659aa) (Homo sapiens (Human), UniProt Q06187). Kind of experiment: BTK kinase Lanthascreen binding assay. Particulars: unphosphorylated-BTK kinase domain, 60 minutes incubation, 50 nM Tracer 236; pIC50 = negative log of the IC50 in molar. Put shortly: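 Measures how well compounds compete with a fluorescence-labelled tracer for binding to BTK in its unphosphorylated state. IC50 values were fitted and expressed as pIC50 (negative logarithm of the molar IC50).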
Chain of unphosphorylated-BTK kinase domain (UP-BTK), GST-tagged human BTK (389-659aa) (Q06187 389-659): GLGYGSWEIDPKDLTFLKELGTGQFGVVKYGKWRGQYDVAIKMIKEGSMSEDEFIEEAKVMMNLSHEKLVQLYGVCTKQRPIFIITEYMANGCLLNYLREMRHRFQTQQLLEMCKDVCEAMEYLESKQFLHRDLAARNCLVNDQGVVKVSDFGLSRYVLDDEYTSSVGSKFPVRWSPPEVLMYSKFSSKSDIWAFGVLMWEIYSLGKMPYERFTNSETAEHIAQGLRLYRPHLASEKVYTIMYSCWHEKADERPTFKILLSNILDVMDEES
A general note: TR-FRET usually uses a lanthanide donor and a delayed reading to cut background.

Experimental findings from patent US10800792B2, “Inhibitors of Bruton's tyrosine kinase and method of their use” (JANSSEN PHARMACEUTICA NV, priority 2015, dated 2020) are described below.

Take `Cc1cc(Oc2ccccc2)ccc1N1C(=O)Nc2c(C(=O)NC3CCN(C(=O)CC#N)CC3)sc3nccc1c23` [Example 944, N-(1-(2-Cyanoacetyl)piperidin-4-yl)-5-(2-methyl-4-phenoxyphenyl)-4-oxo-4,5-dihydro-3H-1-thia-3,5,8-triazaacenaphthylene-2-carboxamide]: the “BTK_I_binding pIC50” value is recorded as 5.6.

On to `O=C(N[C@H]1CCN(Cc2ccccc2)C1)c1sc2nccc3c2c1NC(=O)N3c1ccc(Oc2ccccc2)cc1` [Example 945, (S)—N-(1-Benzylpyrrolidin-3-yl)-4-oxo-5-(4-phenoxyphenyl)-4,5-dihydro-3H-1-thia-3,5,8-triazaacenaphthylene-2-carboxamide], for which the “BTK_I_binding pIC50” value amounted to 5.5.

With `COc1ccc(N2C(=O)Nc3c(C(=O)N[C@H]4CCCN(C(=O)/C(C#N)=C/C5CC5)C4)sc4nccc2c34)c(C)c1` [Example 946, (S,E)-N-(1-(2-Cyano-3-cyclopropylacryloyl)piperidin-3-yl)-5-(4-methoxy-2-methylphenyl)-4-oxo-4,5-dihydro-3H-1-thia-3,5,8-triazaacenaphthylene-2-carboxamide], the “BTK_I_binding pIC50” value stood at 5.4.

As to `CCC(=O)N1CCC(NC(=O)c2sc3nccc4c3c2NC(=O)N4c2ccc(Oc3ccccc3)cc2C)CC1` [Example 947, 5-(2-Methyl-4-phenoxyphenyl)-4-oxo-N-(1-propionylpiperidin-4-yl)-4,5-dihydro-3H-1-thia-3,5,8-triazaacenaphthylene-2-carboxamide], the “BTK_I_binding pIC50” value is 5.4.

Regarding `C=CC(=O)N1CCC[C@@H](NC(=O)c2sc3nccc4c3c2NC(=O)N4c2ccc(N)cc2)C1` [Example 948, (R)—N-(1-Acryloylpiperidin-3-yl)-5-(4-aminophenyl)-4-oxo-4,5-dihydro-3H-1-thia-3,5,8-triazaacenaphthylene-2-carboxamide], the “BTK_I_binding pIC50” value was 5.2.

Regarding `CN(C)c1ccc(N2C(=O)Nc3c(C(=O)N[C@@H]4CCCNC4)sc4nccc2c34)cc1` [Example 949, (R)-5-(4-(Dimethylamino)phenyl)-4-oxo-N-(piperidin-3-yl)-4,5-dihydro-3H-1-thia-3,5,8-triazaacenaphthylene-2-carboxamide], the “BTK_I_binding pIC50” value was 5.2.

With `Cc1cccc(N2C(=O)Nc3c(C(=O)N[C@@H]4CCCNC4)sc4nccc2c34)c1` [Example 950, (R)-4-Oxo-N-(piperidin-3-yl)-5-(m-tolyl)-4,5-dihydro-3H-1-thia-3,5,8-triazaacenaphthylene-2-carboxamide], the “BTK_I_binding pIC50” value was found to be 5.1.

For `O=C(N[C@@H]1CCCNC1)c1sc2nccc3c2c1NC(=O)N3c1ccc(Cl)cc1` [Example 951, (R)-5-(4-Chlorophenyl)-4-oxo-N-(piperidin-3-yl)-4,5-dihydro-3H-1-thia-3,5,8-triazaacenaphthylene-2-carboxamide], the “BTK_I_binding pIC50” value worked out at 5.1.

Regarding `Cc1ccc(N2C(=O)Nc3c(C(=O)N[C@@H]4CCCNC4)sc4nccc2c34)cc1` [Example 952, (R)-4-Oxo-N-(piperidin-3-yl)-5-(p-tolyl)-4,5-dihydro-3H-1-thia-3,5,8-triazaacenaphthylene-2-carboxamide], the “BTK_I_binding pIC50” value turned out to be 5.1.

On to `O=C(N[C@@H]1CCCNC1)c1sc2nccc3c2c1NC(=O)N3c1ccc(F)cc1` [Example 953, (R)-5-(4-Fluorophenyl)-4-oxo-N-(piperidin-3-yl)-4,5-dihydro-3H-1-thia-3,5,8-triazaacenaphthylene-2-carboxamide], for which the “BTK_I_binding pIC50” value is recorded as 5.1.

Consider `CC(C)(C)c1ccc(N2C(=O)Nc3c(C(=O)N[C@@H]4CCCNC4)sc4nccc2c34)cc1` [Example 954, (R)-5-(4-(tert-Butyl)phenyl)-4-oxo-N-(piperidin-3-yl)-4,5-dihydro-3H-1-thia-3,5,8-triazaacenaphthylene-2-carboxamide], for which the “BTK_I_binding pIC50” value amounted to 5.0.

Turning to `Cc1cc(N2C(=O)Nc3c(C(=O)N[C@@H]4CCCNC4)sc4nccc2c34)ccc1OC(C)C` [Example 955, (R)-5-(4-Isopropoxy-3-methylphenyl)-4-oxo-N-(piperidin-3-yl)-4,5-dihydro-3H-1-thia-3,5,8-triazaacenaphthylene-2-carboxamide], the “BTK_I_binding pIC50” value is recorded as below 5.

As for `Nc1ccc(N2C(=O)Nc3c(C(=O)N[C@@H]4CCCNC4)sc4nccc2c34)cc1` [Example 956, (R)-5-(4-Aminophenyl)-4-oxo-N-(piperidin-3-yl)-4,5-dihydro-3H-1-thia-3,5,8-triazaacenaphthylene-2-carboxamide], the “BTK_I_binding pIC50” value is recorded as below 5.

For `Cc1c(Oc2ccccc2)cccc1N1C(=O)Nc2c(C(=O)N[C@H]3CCCN(C(=O)/C(C#N)=C/C4CC4)C3)sc3nccc1c23` [Example 957, (S,E)-N-(1-(2-Cyano-3-cyclopropylacryloyl)piperidin-3-yl)-5-(2-methyl-3-phenoxyphenyl)-4-oxo-4,5-dihydro-3H-1-thia-3,5,8-triazaacenaphthylene-2-carboxamide], the “BTK_I_binding pIC50” value is on record as below 5.

Turning to `C=CC(=O)N1CC[C@@H](NC(=O)c2sc3nccc4c3c2NC(=O)N4c2ccc(Oc3cccnn3)nc2C)C1` [Example 974, (R)—N-(1-Acryloylpyrrolidin-3-yl)-5-(2-methyl-6-(pyridazin-3-yloxy)pyridin-3-yl)-4-oxo-4,5-dihydro-3H-1-thia-3,5,8-triazaacenaphthylene-2-carboxamide], the “BTK_I_binding pIC50” value is given as 5.6.

On to `C=CC(=O)N1CCC[C@@H](NC(=O)c2sc3nccc4c3c2NC(=O)N4c2ccc(Oc3cccnn3)nc2C)C1` [Example 975, (R)—N-(1-Acryloylpiperidin-3-yl)-5-(2-methyl-6-(pyridazin-3-yloxy)pyridin-3-yl)-4-oxo-4,5-dihydro-3H-1-thia-3,5,8-triazaacenaphthylene-2-carboxamide], for which the “BTK_I_binding pIC50” value was 5.0.
